Tested on: K-Ras wild type expressing 293 cells
Settings: FIG. 6B
Protocol: SW480 and HT29 cells are both propagated at 37° C./5% CO2 and in RPMI+10% fetal bovine serum (FBS) and DMEM+10% FBS, respectively. Upon plating cells in microtiter plates, compounds are supplemented at various concentrations and viability is assessed within 24-72 hrs by manual or automated (Countess (Invitrogen)) trypan blue cytometry.

Compound: Cc1ccc(Nc2nc(N/N=C/c3cccc([N+](=O)[O-])c3O)nc(N3CCOCC3)n2)cc1 [A0383, 2-(hydroxynitroso)-6-[(1E)-(2-{4-[(4-methylphenyl)amino]-6-(morpholin-4-yl)-1,3,5-triazin-2-yl}hydrazin-1-ylidene)methyl]phenol]
- general toxicity (293 cells not overexpressing mutant K-Ras, dosages 50-100 µM): lack of general toxicity
- IC50 (read-out: IC50 (cell death, unspecific toxicity), K-Ras wild type expressing 293 cells): > 100 µM
